# According to patent US20080153824A1, “Method for Controlling Fungal Diseases in Leguminous Plants” (BASF Aktiengesellschaft, priority 2004, published 2008):
# System: soybean rust
# Assay: Seed dressing trial, activity against soybean rust
# Format: in vivo, soybean rust on soybean plants (cultivar BRS 133)
# Conditions: soybean seeds cultivar BRS 133 treated with 1000 g orysastrobin/100 kg of seed (SC, 250 g/l, liquid dressing); inoculated 3 weeks after sowing; assessed 11 days after inoculation; untreated-seed plants 79% infected
# Description: Seed dressing trial, activity against soybean rust
# Soybean seeds of the cultivar BRS 133 were treated with 1000 g of orysastrobin/100 kg of seed, formulated as SC with 250 g of active compound per liter, as liquid dressing, then sown into pots and cultivated in a greenhouse at about 22° C. 3 weeks after sowing, the plants were inoculated with soybean rust, incubated at 100% relative atmospheric humidity for 24 hours and then again cultivated in the greenhouse. At the time of inoculation, the first pair of leaves and one subsequent leaf had developed. The infection of the leaves was assessed 11 days after the inoculation.
smiles,measurement,value
"CNC(=O)/C(=N/OC)c1ccccc1CO/N=C(C)/C(=N/OC)C(C)=NOC (stereo in doubt) [orysastrobin, (2E)-2-(methoxyimino)-2-{2-[(3E,5E,6E)-5-(methoxyimino)-4,6-dimethyl-2,8-dioxa-3,7-diazanona-3,6-dien-1-yl]phenyl}-N-methylacetamide]",total infection of the leaves,less than 1%
